Experimental data from US11471507B2, “HMGB1 antagonist” (THE FEINSTEIN INSTITUTES FOR MEDICAL RESEARCH, priority 2019, dated 2022).
Several values for one entry are separate records, joined by “and”; a condition that tells them apart may be missing. Equal values may be shown once. Entries after “also recorded” stand apart in the source; their conditions may differ. Read-outs that look alike come from different tables or passages of the source. Marks after values point to notes of the source that are not given here.

How the values were obtained:
Single-dose tolerability = assay type: in vivo; conditions: single-dose studies
[1] = test system: HMGB1-induced TNF release; test: HMGB1-induced TNF release in human primary macrophages (ELISA); assay type: cell-based; conditions: FIG. 17A
Procedure: For all of these studies, TNF released was measured using an ELISA.

F11 cells = test: Disulfide HMGB1-induced calcium influx in F11 cells; assay type: cell-based; conditions: relative fluorescent intensity; most inhibition at 50 μg/ml
Description: These studies all measured relative fluorescent intensity with FIG. 30C which included the largest amount of […]

[2] = test system: CCI-induced neuropathic pain; test: Chronic constriction injury of the sciatic nerve (CCI) neuropathic pain; assay type: in vivo, male Wistar rats; conditions: for Paw Withdrawal Latency: CCI
Procedure: The CCI rats each received surgery. […] Mechanical and thermal sensitivity tests were also performed over time. Hargreaves Thermal Hypersensitivity test was administered to the rats as well as Von Frey mechanical hypersensitivity test.
Rats (male Wistar, 150-180 gm, n=6/group) had CCI surgery. […] Two weeks after surgery, thermal (Hargreaves) or mechanical (von Frey) hypersensitivity was assessed. *: P<0.05 vs. PBS group. […]

[3] = test system: DAMPs-induced TNF secretion (CIRP, SAA, PEDF, HSP 70, HSP90, H2A); test: DAMPs-induced TNF secretion in human macrophages; assay type: cell-based; conditions: 16 hours
[4] = test system: CCI-induced neuropathic pain; test: Chronic constriction injury of the sciatic nerve (CCI) neuropathic pain; parameters: species or system male Wistar rats; conditions: rat, in vivo
[5] = in vivo
[6] = test system: PAMPs-induced TNF release (LPS, PGN, AGE, Poly I:C); test: PAMPs-induced TNF release in human macrophages; assay type: cell-based; conditions: LPS 4 ng/ml, poly I:C 50 μg/ml, PGN 5 μg/ml, S100A12 50 μg/ml; 16 hours
Solubility of K883 = assay type: physicochemical
Description: This provides the basis for developing intravenous (IV) formulation that will serve as a benchmark for developing oral (PO) formulations.

in vivo = conditions: male, Sprague-Dawley, rat; for AUC(0-inf): iv, 1 mg/kg
[7] = test system: APAP-induced liver injury; test: APAP-induced liver injury model; assay type: in vivo, male C57BL/6 mice
STZ-induced diabetes = test: STZ-induced diabetes; assay type: in vivo, mice; conditions: 500 μg/mouse repetitive administration; vs PBS
Procedure: Mice were administered repetitive administration of […] (500 μg/mouse). […] Repetitive administration of […] was therefore shown to be beneficial in STZ-induced diabetes. […] (*: P<0.05 vs. PBS group. N=6-8 mice per group).

[8] = Pharmacokinetics after intravenous administration in rats (LC-MS)
[9] = test system: cecal ligation and puncture-sepsis; test: Cecal ligation and puncture (CLP) sepsis; assay type: in vivo; conditions: male C57BL/6 mice; 500 μg/mouse IP once a day for 3 days starting 24 hours post CLP; n=15
[10] = test system: liver ischemia and reperfusion injury; conditions: 500 μg/mouse IP at time of I/R surgery; 6 hours; vs vehicle; cited from earlier work
[11] = test system: APAP-induced liver injury; conditions: comparative data, cited from earlier work
[12] = test system: cecal ligation and puncture-sepsis; conditions: male C57BL/6 mice; 50 or 500 μg/mouse IP once a day for 4 days starting 24 hours post CLP; n=20; comparative data; cited from earlier work

SMILES: NC(=O)N(CCC(=O)O)NC(=O)[C@H](CO)NC(=O)[C@H](CO)NC(=O)N(N)Cc1ccccc1 [K883]
- tolerability (Single-dose tolerability): well-tolerated
- HMGB1-induced TNF secretion [1]: inhibition
- disulfide HMGB1-induced calcium influx (F11 cells): inhibit disulfide hmgb1-induced calcium influx
- CCI-induced thermal and mechanical hypersensitivity ([2]; 800 μg/rat IP once a day for 3 days, Hargreaves, von Frey): ameliorated both mechanical and thermal hypersensitivity; also recorded: improved CCI-induced thermal and mechanical hypersensitivity
- tolerance to repeated treatment ([2]; 800 μg/rat IP once daily for three days): did not develop tolerance
- paw withdrawal ([2]; CCI rat model, vehicle 3.73+/−0.58 (SD)): 5.45 ± 0.98 s
- Paw Withdrawal Latency ([2]; 0 hours post treatment): 4.1 ± 1.0 s
- Paw Withdrawal Latency ([2]; 2 hours post treatment): 4.3 ± 1.2 s
- Paw Withdrawal Latency ([2]; 6 hours post treatment): 6.0 ± 0.6* sec
- Paw Withdrawal Latency ([2]; 24 hours post treatment): 5.0 ± 0.5 s
- TNF secretion induced by other DAMPs [3]: not inhibited
- CCI-induced CXCL1, TNF and IL-1β expression (spine) [4]: reduce CCI-induced CSCL1, TNF and IL-1β expression
- CCI-induced CXCL1 and TNF expression (DRGs) [4]: reduce CCI-induced CSCL1 and TNF expression
- oral bioavailability [5]: low oral bioavailability
- PAMPs-induced TNF release [6]: failed to inhibit other PAMPS; also recorded: does not inhibit other PAMPs
- solubility (Solubility of K883; aqueous with cosolvent or surfactant or cyclodextrin, PBS:PEG 300:propylene glycol:polysorbate 80 at 50:40:5:5, preliminary evidence, read-out: solubility in excipient mixture): > 5000 µg/mL
- solubility (Solubility of K883; water, read-out: solubility in water): < 100 µg/mL
- AUC(0-inf) (in vivo; Mean): 3780 ng·h/mL
- AUC(0-inf) (in vivo; individual rats): 3810 ng·h/mL
- half-life (in vivo; serum half-life): > 60 min
- serum ALT ([7]; 50 ugs/mouse, vs vehicle controls): reduced serum ALT
- liver necrosis (H&E histology) ([7]; APAP 350 mg/kg IP, K883 50 μg/mouse IP at 2 and 7 hours post-APAP, 24 hours, vs vehicle): reduced liver necrosis
- mice surviving the toxicity of APAP (2 weeks) ([7]; APAP 400 mg/kg, 50 μg/mouse IP once-a-day for 5 days starting 2 hours post-APAP, 8 in the control group): 14 mice out of 15
- hyperglycemia (STZ-induced diabetes): delays hyperglycemia
- insulitis (STZ-induced diabetes): reduces insulitis
- weight gain (STZ-induced diabetes): improves weight gain
- AUClast, individual rats ([8]; IV 1 mg/kg, 1 mg/kg): 3772 ng·h/mL and 3807 ng·h/mL and 3749 ng·h/mL
- MRTlast, individual rats ([8]; IV 1 mg/kg, 1 mg/kg): 32.1 min and 31.7 min and 36.4 min
- Vss, individual rats ([8]; IV 1 mg/kg, 1 mg/kg): 0.163 L/kg
- t1/2, individual rats ([8]; IV 1 mg/kg, 1 mg/kg): 78 min
- Plasma concentration, individual rats ([8]; IV 1 mg/kg, 0.50 hr, 1 mg/kg): 2500 ng/mL and 3220 ng/mL
- Plasma concentration, individual rats ([8]; IV 1 mg/kg, 1.0 hr, 1 mg/kg): 1160 ng/mL and 1300 ng/mL
- Plasma concentration, individual rats ([8]; IV 1 mg/kg, 2.0 hr, 1 mg/kg): 130 ng/mL and 142 ng/mL
- Plasma concentration, individual rats ([8]; IV 1 mg/kg, 4.0 hr, 1 mg/kg): 15.1 ng/mL and 17.7 ng/mL
- Plasma concentration, individual rats ([8]; IV 1 mg/kg, 6.0 hr, 1 mg/kg): 4.04 ng/mL and 4.77 ng/mL
- Plasma concentration, individual rats ([8]; IV 1 mg/kg, 8.0 hr): 2.01 ng/mL
- Plasma concentration, individual rats ([8]; IV 1 mg/kg, 8.0 hr, 1 mg/kg): 0.871 ng/mL and 1.68 ng/mL
- AUClast, Mean ([8]; IV 1 mg/kg, mean of 3 rats): 3776 ng·h/mL
- MRTlast, Mean ([8]; IV 1 mg/kg, mean of 3 rats): 33.4 min
- half-life ([8]; male, Sprague-Dawley, rat, in vivo, 1 mg/kg, in vivo half-life (T½)): > 60 min
- AUC(0-inf) ([8]; male, Sprague-Dawley, rat, in vivo, iv, 1 mg/kg): 3780 ng·h/mL
- concentration at 0.5 hr ([8]; male, Sprague-Dawley, rat, in vivo, iv, 1 mg/kg, Plasma concentration, Mean, IV 1 mg/kg, 0.50 hr, mean of 3 rats): 2910 ng/mL
- concentration at 1 hr ([8]; male, Sprague-Dawley, rat, in vivo, iv, 1 mg/kg, Plasma concentration, Mean, IV 1 mg/kg, 1.0 hr, mean of 3 rats): 1090 ng/mL
- concentration at 2 hr ([8]; male, Sprague-Dawley, rat, in vivo, iv, 1 mg/kg, Plasma concentration, Mean, IV 1 mg/kg, 2.0 hr, mean of 3 rats): 135 ng/mL
- concentration at 4 hr ([8]; male, Sprague-Dawley, rat, in vivo, iv, 1 mg/kg, Plasma concentration, Mean, IV 1 mg/kg, 4.0 hr, mean of 3 rats): 16.6 ng/mL
- concentration at 6 hr ([8]; male, Sprague-Dawley, rat, in vivo, iv, 1 mg/kg, Plasma concentration, Mean, IV 1 mg/kg, 6.0 hr, mean of 3 rats): 5.1 ng/mL
- concentration at 8 hr ([8]; male, Sprague-Dawley, rat, in vivo, iv, 1 mg/kg, Plasma concentration, Mean, IV 1 mg/kg, 8.0 hr, mean of 3 rats): 1.52 ng/mL
- concentration at 0.5 hr ([8]; male, Sprague-Dawley, rat, in vivo, iv, 1 mg/kg, Plasma concentration, individual rats, IV 1 mg/kg, 0.50 hr): 3020 ng/mL
- concentration at 1 hr ([8]; male, Sprague-Dawley, rat, in vivo, iv, 1 mg/kg, Plasma concentration, individual rats, IV 1 mg/kg, 1.0 hr): 814 ng/mL
- concentration at 2 hr ([8]; male, Sprague-Dawley, rat, in vivo, iv, 1 mg/kg, Plasma concentration, individual rats, IV 1 mg/kg, 2.0 hr): 133 ng/mL
- concentration at 4 hr ([8]; male, Sprague-Dawley, rat, in vivo, iv, 1 mg/kg, Plasma concentration, individual rats, IV 1 mg/kg, 4.0 hr): 17 ng/mL
- concentration at 6 hr ([8]; male, Sprague-Dawley, rat, in vivo, iv, 1 mg/kg, Plasma concentration, individual rats, IV 1 mg/kg, 6.0 hr): 6.49 ng/mL
- sepsis lethality (survival 2 weeks) [9]: protects against sepsis lethality

SMILES: NC(=O)[C@H](CCC(=O)O)NC(=O)[C@H](CO)NC(=O)[C@H](CO)NC(=O)[C@@H](N)Cc1ccccc1 [P5779]
- Serum levels of ALT and AST [10]: reduced
- serum ALT ([11]; 500 ugs/mouse): significant reductions in ALT
- liver necrosis (H&E histology) ([11]; APAP 350 mg/kg IP, P5779 50 or 500 μg/mouse IP at 2 and 7 hours, vs scrambled control peptide): reduced liver necrosis
- Percent survival (2 weeks) post-APAP ([11]; APAP 400 mg/kg, 500 μg/mouse IP once a day for 5 days, n=30): significantly improved
- sepsis lethality (survival 2 weeks) [12]: protects against sepsis lethality
